Experimental findings from ChEMBL document CHEMBL1201862, “PubChem BioAssay data set” (2004) are described below.

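Dose response: 5 concentrations. Exposure: 48 h. Format: 96-well plates. Endpoint: linear interpolation; highest concentration if not reached. GI50: concentration for 50% inhibition of growth.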 Activity calls are given as the source filed them. No stated cut-off is given here; in the data, active = GI50 up to about 1.1 µM and inactive = higher. Some results are limits rather than exact numbers.

Experiment in all cases: DTP human tumour cell line panel, 48 h
Assay [1] deals with EKVX.
The subject of assay [2] is HCT-15.
In assay [3] the test system is HOP-62.
For assay [4], the system named is LOX IMVI.
Assay [5] relates to MOLT-4.
Assay [6] has as its system Malme-3M.
Assay [7] deals with NCI-H522.
Assay [8] has as its system OVCAR-4.
Assay [9] deals with OVCAR-5.
Assay [10] relates to RPMI-8226.
In assay [11] the test system is SF-268.
Assay [12] has as its system SF-295.
Assay [13] deals with SK-MEL-2.
Assay [14] relates to SNB-75.
The test system of assay [15] is TK-10.
For assay [16], the system named is U-251.
Assay [17] deals with SNB-19.

With `N#CC(C#N)=C1NN=C(Cl)c2ccccc21`, the GI50 was > 100 µM (inactive) in [1]; over 100 µM in [2]; 67.8 µM (inactive) in assay [3]; > 100 µM (inactive) in assay [4]; > 100 µM (inactive) in assay [5]; 30.3 µM (inactive) in assay [6]. For the same molecule, the GI50 was 72.1 µM (inactive) in assay [7]; > 100 µM (inactive) in [8]; > 100 µM (inactive) in [9]; 57.3 µM (inactive) in assay [10]; 72.9 µM (inactive) in assay [11]; > 100 µM (inactive) in assay [12]. Moreover, the GI50 in assay [13] was > 100 µM (inactive); in assay [14] it was 33.9 µM (inactive); in [15], > 100 µM (inactive); in assay [16], 96.4 µM (inactive).

On to `OCC(O)C(O)C(O)c1nnn[nH]1` (centres undefined), for which the GI50 was > 100 µM (inactive) in assay [1]; over 100 µM in assay [2]; > 100 µM (inactive) in assay [3]; > 100 µM (inactive) in assay [4]; > 100 µM (inactive) in assay [5]; > 100 µM (inactive) in assay [6]. The GI50 in assay [7], in [8], in assay [9], in assay [10], in assay [11] and in assay [12] was > 100 µM (inactive) throughout. In addition, the GI50 in assay [13], in [14] and in assay [16] was > 100 µM (inactive) each time.

For `OCC(O)C(O)C(O)c1nn(-c2ccc(Cl)cc2)c2nc3cc(Cl)c(Cl)cc3nc12` (centres undefined), the GI50 in assay [1] is 22.8 µM (inactive); in assay [3], 20.1 µM (inactive); in assay [4], 39.3 µM (inactive); in assay [5] it was 52.5 µM (inactive); in [6] it was 15.2 µM (inactive); in assay [7], 27.1 µM (inactive). Moreover, the GI50 in [8] is > 100 µM (inactive); in assay [9] it was > 100 µM (inactive); in assay [10], > 100 µM (inactive); in assay [11], 71.1 µM (inactive); in [12], 67.6 µM (inactive); in assay [13], 24.8 µM (inactive). Further, the GI50 in assay [17] was 33.7 µM (inactive); in assay [14] it was 3.66 µM (inactive); in [15] it was 32.4 µM (inactive); in assay [16] it was 57.5 µM (inactive).

With `COC(=O)C(CC=O)C(=O)C(=O)Nc1cccc(C(F)(F)F)c1` (centres undefined), the GI50 is > 100 µM (inactive) in [1]; over 100 µM in assay [2]; > 100 µM (inactive) in [3]; > 100 µM (inactive) in [4]; > 100 µM (inactive) in [5]; > 100 µM (inactive) in [6]. Moreover, the GI50 in assay [7], in [8], in assay [9], in assay [10], in assay [11] and in assay [12] was > 100 µM (inactive) in each case. Further, the GI50 in assay [13], in assay [17], in assay [15] and in assay [16] was > 100 µM (inactive) in each case.

For the molecule `CN1OC2OC(=O)OC2[C@H]1[C@H]1O[C@H](c2ccccc2)OC1(C)c1cc(OC(=O)c2ccccc2)ccc1OC(=O)c1ccccc1` (some centres undefined), the GI50 in [1] is > 50 µM (inactive); in [2], over 50 µM; in assay [3], > 50 µM (inactive); in assay [4], > 50 µM (inactive); in [5], > 50 µM (inactive); in assay [6] it was > 50 µM (inactive). The GI50 in [7], in assay [8], in [9], in assay [10], in [11] and in assay [13] was > 50 µM (inactive) throughout. Besides, the GI50 in assay [17], in [14], in assay [15] and in assay [16] was > 50 µM (inactive) each time.

In general, GI50 refers to the concentration that inhibits growth by half.
